Measurements published in ChEMBL document CHEMBL4813920, “Metronidazole-conjugates: A comprehensive review of recent developments towards synthesis and medicinal perspective” (Eur J Med Chem, 2021).
Values after ≈ are worked out from the molar mass of the structure shown.

Experiments:
Entamoeba histolytica [1] = assay: Antiamoebic activity against Entamoeba histolytica HM-1:IMSS trophozoites measured after 72 hrs by microdilution method; format: functional, organism-based
B16-F10 = assay: Antiproliferative activity against mouse B16-F10 cells incubated for 24 to 48 hrs by MTT assay; format: functional, cell-based
Giardia intestinalis [2] = assay: Antigiardial activity against Giardia intestinalis WB incubated for 2 days under anaerobic condition; format: functional, organism-based; settings: Giardia duodenalis, 48 h
Entamoeba histolytica [3] = assay: Antiamoebic activity against Entamoeba histolytica HM-1:IMSS trophozoites incubated for 2 days under anaerobic condition; format: functional, organism-based; settings: 48 h
Tritrichomonas foetus [4] = assay: Anti-trichomonas activity against Trichomonas foetus D1 incubated for 24 hrs by hemocytometer counting method; format: functional, organism-based; settings: D1, 24 h
Tritrichomonas foetus [5] = assay: Anti-trichomonas activity against Trichomonas foetus C1 incubated for 24 hrs by hemocytometer counting method; format: functional, organism-based; settings: C1, 24 h
Trichomonas vaginalis [6] = assay: Anti-trichomonas activity against Trichomonas vaginalis G3 incubated for 24 hrs by hemocytometer counting method; format: functional, organism-based; settings: G3, 24 h
Candida parapsilosis = assay: Antimicrobial activity against Candida parapsilosis ATCC 22019; format: functional; settings: Lodderomyces parapsilosis
Pseudomonas aeruginosa [7] = assay: Antibacterial activity against Pseudomonas aeruginosa ATCC 27853 by microbroth dilution method; format: functional
Pseudomonas aeruginosa [8] = assay: Potency index, ratio norfloxacin MIC to test compound MIC for antibacterial activity against Pseudomonas aeruginosa ATCC 27853; format: functional
Acinetobacter baumannii [9] = assay: Antibacterial activity against Acinetobacter baumannii by microbroth dilution method; format: functional
Enterococcus faecalis [10] = assay: Antibacterial activity against Enterococcus faecalis by microbroth dilution method; format: functional
Candida albicans = assay: Antimicrobial activity against Candida albicans ATCC 90023; format: functional
Escherichia coli [11] = assay: Potency index, ratio norfloxacin MIC to test compound MIC for antibacterial activity against Escherichia coli; format: functional
Escherichia coli [12] = assay: Antibacterial activity against Escherichia coli by microbroth dilution method; format: functional
Enterococcus faecalis [13] = assay: Potency index, ratio norfloxacin MIC to test compound MIC for antibacterial activity against Enterococcus faecalis; format: functional
Acinetobacter baumannii [14] = assay: Potency index, ratio norfloxacin MIC to test compound MIC for antibacterial activity against Acinetobacter baumannii; format: functional
Trichomonas vaginalis [15] = assay: Anti-trichomonas activity against Trichomonas vaginalis GT3 incubated for 48 hrs; format: functional, organism-based; settings: GT3, 48 h
Clostridium sporogenes = assay: Antimicrobial activity against Clostridium sporogenes ATCC 19404 incubated for 24 hrs by broth microdilution method; format: functional
Trichomonas vaginalis [16] = assay: Anti-trichomonas activity against Trichomonas vaginalis JT incubated for 48 hrs by hemocytometer based eosin exclusion assay; format: functional, organism-based
[17] = Selectivity index, ratio of CC50 for African green monkey Vero cells to IC50 for antigiardial activity against Trichomonas vaginalis GT3; format: toxicity; settings: read-out: Ratio CC50/IC50
Giardia intestinalis [18] = assay: Antigiardial activity against Giardia intestinalis WB ATCC 30957 incubated for 72 hrs by trypan blue staining based assay; format: functional, organism-based; settings: Giardia duodenalis, WB ATCC 30957, 72 h
[19] = Selectivity index, ratio of CC50 for African green monkey Vero cells to IC50 for antigiardial activity against Giardia intestinalis MSS:0696:1; format: toxicity; settings: read-out: Ratio CC50/IC50
Leishmania mexicana = assay: Antileishmanial activity against promastigote form of Leishmania mexicana MHOM/BZ/82/Bel21 measured for 7 days by cell counting method; format: functional; settings: MHOM/BZ/82/Bel21, 168 h, time 7 day
Trichomonas vaginalis [20] = assay: Anti-trichomonas activity against Trichomonas vaginalis CDC 085 incubated for 48 hrs by hemocytometer based eosin exclusion assay; format: functional, organism-based; settings: CDC 085, 48 h
Escherichia coli [21] = assay: Antibacterial activity against Escherichia coli ATCC 8739 incubated for 24 hrs by broth microdilution method; format: functional
Staphylococcus aureus = assay: Antibacterial activity against Staphylococcus aureus ATCC 6538P incubated for 24 hrs by broth microdilution method; format: functional
Trichomonas vaginalis [22] = assay: Anti-trichomonas activity against Trichomonas vaginalis JT assessed as release of superoxide radical at 0.229 uM preincubated for 3 hrs followed by Dihydroethidium probe addition and measured after 30 mins by confocal microscopy; format: functional; settings: time 3.5 hrs
Clostridium perfringens = assay: Antibacterial activity against Clostridium perfringens ATCC 13124 incubated for 48 hrs under anaerobic condition by MTT assay; format: functional
Entamoeba histolytica [23] = assay: Antiamoebic activity against Entamoeba histolytica HK9 ATCC 30015 incubated for 72 hrs by trypan blue staining based assay; format: functional, organism-based; settings: ATCC 30015, 72 h
Leishmania braziliensis = assay: Antileishmanial activity against promastigote form of Leishmania braziliensis MHOM/BR/75/M2903 measured for 7 days by cell counting method; format: functional; settings: MHOM/BR/75/M2903, 168 h, time 7 day
Trichomonas vaginalis [24] = assay: Anti-trichomonas activity against Trichomonas vaginalis JT assessed as release of H2O2 at 0.229 uM preincubated for 3 hrs followed by DCFH-DA probe addition and measured after 30 mins by confocal microscopy; format: functional; settings: time 3.5 hrs

Question: Which IC50 (Entamoeba histolytica [1]) does the source give for `Cc1ncc([N+](=O)[O-])n1CCOC(=O)Nc1ccc(OCc2cccc(I)c2)cc1` here?
Answer: 260 nM

Question: With `Cc1ncc([N+](=O)[O-])n1CCOC(=O)Nc1ccc(OS(=O)(=O)c2ccc(C(F)(F)F)cc2)cc1` as the compound, how does the IC50 (Entamoeba histolytica [1]) read?
Answer: 240 nM

Question: For `Cc1ccnc(NS(=O)(=O)c2ccc(/N=C\c3ccc(OCCn4c([N+](=O)[O-])cnc4C)cc3)cc2)n1`, which IC50 (B16-F10) is on record?
Answer: 220 nM

Question: Which IC50 (Giardia intestinalis [2]) does the source give for `Cc1ncc([N+](=O)[O-])n1CCn1cc(CN2C(=O)C(=C3OCCO3)c3cc(Br)ccc32)nn1` here?
Answer: 800 nM

Question: What about the IC50 (Entamoeba histolytica [3]) of the same compound?
Answer: 1500 nM

Question: What does the source list for `Cc1ncc([N+](=O)[O-])n1CCn1cc(CN2C(=O)/C(=N\NC(N)=S)c3ccccc32)nn1`?
Answer: IC50 (Tritrichomonas foetus [4]): 600 nM; IC50 (Tritrichomonas foetus [5]): 600 nM; IC50 (Trichomonas vaginalis [6]): 2600 nM

Question: Which results are given for `Cc1ncc([N+](=O)[O-])n1CC(O)CN1CCN(S(=O)(=O)c2ccc(N)cc2)CC1` (stereo not drawn)?
Answer: MIC (Candida parapsilosis): 75 µM (≈ 31.8 µg/mL); MIC (Pseudomonas aeruginosa [7]): 38 µM (≈ 16.1 µg/mL); Ratio (Pseudomonas aeruginosa [8]): 11; MIC (Acinetobacter baumannii [9]): 75 µM (≈ 31.8 µg/mL); MIC (Enterococcus faecalis [10]): 75 µM (≈ 31.8 µg/mL); MIC (Candida albicans): 75 µM (≈ 31.8 µg/mL); Ratio (Escherichia coli [11]): 84; MIC (Escherichia coli [12]): 19 µM (≈ 8.07 µg/mL); Ratio (Enterococcus faecalis [13]): 11; Ratio (Acinetobacter baumannii [14]): 11

Question: What does the source list for `Cc1ncc([N+](=O)[O-])n1CCO` [METRONIDAZOLE]?
Answer: IC50 (Trichomonas vaginalis [15]): 930 nM; MIC (Clostridium sporogenes): 42.9 µM (≈ 7.34 µg/mL); IC50 (Trichomonas vaginalis [16]): 68 nM; selectivity ratio [17]: > 107; IC50 (Giardia intestinalis [18]): 5.7 µM; selectivity ratio [19]: > 22; LC50 (Leishmania mexicana): > 1 mM; IC50 (Trichomonas vaginalis [20]): 490 nM; MIC (Escherichia coli [21]): 5.48 mM (≈ 938 µg/mL); MIC (Staphylococcus aureus): 2050 µM (≈ 351 µg/mL); Activity (Trichomonas vaginalis [22]): 350000 a.u.; MIC (Clostridium perfringens): 5.8 nM (≈ 0.000993 µg/mL); IC50 (Entamoeba histolytica [23]): 5.2 µM; LC50 (Leishmania braziliensis): > 1 mM; Activity (Trichomonas vaginalis [24]): 1800000 a.u.
